Source: patent US11945825B2, “Compositions and methods for regulating glucose homeostasis and insulin action” (UNIVERSITY OF VIRGINIA PATENT FOUNDATION, priority 2012, dated 2024)

How the values were obtained:
[1] = mouse, in vivo; cited from earlier work
[2] = patients consuming ˜300 mg/d, over several months, no change in food intake; cited from earlier work
L6 myotubes = settings: 5 min treatment
L6 cells [3] = test system: L6 cells
[4] = test system: isolated mouse liver mitochondria; settings: 5 μM
L6 cells [5] = settings: 20 μM, 20 min
L6 myoblasts [6] = settings: 1 μM uncoupler, 1 μM oligomycin
[7] = test system: AMP-activated protein kinase; settings: L6 cells, 40 min
L6 myoblasts [8] = assay: Oxygen consumption rate dose response (Seahorse XF24); format: cell-based, rat

Compound | metabolic effects in mice [1] | average weight loss [2] [pounds per week] | intracellular acidification relative to BAM15 (L6 myotubes) [fold] | plasma membrane potential (L6 cells [3]; current clamp, resting membrane potential, 10 μM) | current under voltage clamp (L6 cells [3]; holding potential −70 mV, 1 μM and 10 μM) | plasma membrane conductance (L6 cells [3]; voltage clamp, −130 mV to −60 mV) | electron donation to the ETC ([4]; after 2 μM rotenone) | effect on complex II (succinate-stimulated respiration) ([4]; succinate added at 20 min) | cellular ATP levels (L6 cells [5]) | respiration in the presence of oligomycin (L6 myoblasts [6]) | AMPK activation [7] | shape of oxygen consumption dose response curve (L6 myoblasts [8])
O=[N+]([O-])c1ccc(O)c([N+](=O)[O-])c1 [DNP, 2,4-dinitrophenol] | improved serological glucose, triglyceride, and insulin levels, as well as decreased oxidative damage, reduced body weight, and increased longevity | 1.5 |  |  |  |  |  |  |  |  |  | 
N#CC(C#N)=NNc1ccc(OC(F)(F)F)cc1 [FCCP, carbonyl cyanide p-trifluoromethoxyphenylhydrazone] |  |  | 2 | reversible and repeatable plasma membrane depolarization | induced an inward current | increase in conductance | do not donate electrons to the ETC downstream of complex I | do not affect complex II | loss of cellular ATP | increase oxygen consumption in the presence of oligomycin | activation of AMP-activated protein kinase | inverted bell shaped curve of effectiveness
